Measurements taken from BindingDB's records for PubMed 33721669 (National Institute of Pharmaceutical Education and Research …, 2021).

Assays:
[1] = Inhibition of PDK1 (unknown origin) by SelectScreen kinase assay
[2] = Inhibition of VEGFR-2 (unknown origin) induced tube formation in HUVECs cocultured with fibroblasts measured after 11 days with media renewing every 3 days by staining based analysis
[3] = target: Cyclin-dependent kinase 2 (Homo sapiens, UniProt P24941); test: Inhibition of CDK2 (unknown origin)

COc1cc2c(cc1OC)CN(CC(=O)Nc1ccc3c(c1)/C(=C/c1cnc[nH]1)C(=O)N3)CC2
IC50 [1]: 98000 nM

CCN(CC)CCN1Cc2[nH]c(/C=C3\C(=O)Nc4ccc(Br)cc43)c(C)c2C1=O
IC50 [2]: 179 nM

O=C1Nc2ccc(Br)cc2/C1=N/NC(=O)c1cc2cc(Br)ccc2o1
IC50 [3]: 38 nM

COc1ccc2c(c1)/C(=N/NC(=O)c1cc3cc(Br)ccc3o1)C(=O)N2
IC50 [3]: 53 nM
